Measurements taken from patent US10568866B1, “Composition and its use for increasing innate immune health” (priority 2018, dated 2020).

Legend:
Format in all cases: cell-based
IL-6 = experiment: Pro-inflammatory IL-6 release by LPS stimulated RAW264.7 macrophages (ELISA); details: for comparative effectiveness in decreasing IL-6 secretion (in words): 5-20 μg/ml individually, 75 μg/ml mixture, LPS stimulated, FIG. 3
Experimental: The pro-inflammatory IL-6 release by RAW264.7 macrophages was assessed using the IL-6 Quantikine ELISA assay kit (R&D, Minneapolis, Minn.) according to the manufacturer's protocol. Briefly, 2×10^6 of cells were plated in 6-well plates and allowed to settle for 2-4 h, followed by incubation with different micronutrients and plant extracts (5-20 μg/ml) 24 h at 37° C. in 5% CO2 atmosphere. After the incubation period, cells were stimulated with LPS (10 ng/ml) for additional 24 h and all supernatants were collected and subjected to ELISA assay according to manufacturer's protocol. As a positive control, LPS-stimulated cells without treatment were used. All experiments were done in triplicate.
The effect of naturally-derived agents and their mixture on release of pro-inflammatory IL-6 by RAW264.7 macrophage cell line. Macrophages were pre-incubated with different micronutrients and plant extracts (5-20 μg/ml) individually and in a mixture followed by their stimulation with Lipopolysaccharide (LPS). Each column represents the mean±standard deviation (n=4).

RAW264.7 macrophages = experiment: In vitro phagocytic assay (nitroblue tetrazolium (NBT) reduction test), RAW264.7 macrophages; details: 5-20 μg/ml individually, 75 μg/ml mixture, 24 h, FIG. 1A
Experimental: RAW264.7 macrophages (5×10^6 cells/well of a 96-well plate) were cultured with different micronutrients and plant extracts (5-20 μg/ml) for 24 h at 37° C. Thereafter, 20 μl C. albicans or S. mutans (5×10^7 cells/ml in PBS) suspension, and 20 μl nitroblue tetrazolium (1.5 mg/ml of NBT in PBS) were added to each well. Wells that received PBS+DMSO were used as control. Next, cells were incubated for 3 h at 37° C., the supernatant was removed, and the adherent macrophages were rinsed with RPMI 1640. The cells were air dried before 80 μl of 2M KOH and 100 μl DMSO were added to each well. The absorbance was measured at 570 nm using the microplate reader. Percentage of NBT reduction (reflecting phagocytic activity) was calculated as following equation: Phagocytic Index=(ODsample−ODcontrol)/ODcontrol.
The assay used nitroblue tetrazolium (NBT) reduction test after treatment with different individual micronutrients and plant extracts (5-20 μg/ml) and their combination for 24 h at 37° C. PI and phagocytosis was tested using C. albicans and S. mutants. Values shown are mean±standard deviation (n=4).

YAC-1 cells = experiment: Cytotoxicity assay of natural killer (NK) cells toward target YAC-1 cells (MTT); details: individual compounds 5-20 μg/ml, 24 h, FIG. 2
Experimental: Cytotoxicity Assay of Natural Killer (NK) Cells were performed using splenic natural killer (as the effector cells) activity assay was carried out according as described by Yi et al. Carbohydr. Polym. 2012, 87:636-643. The splenocytes/splenic NK cells were plated into 96-well plates at a density of 1×10^7 cells/ml per well in a 50 μl volume, and stimulated with different micronutrients and plant extracts (5-20 μg/ml) for 24 h at 37° C. Then, YAC-1 cells (1×10^6 cells/ml) were added into all experimental wells (group) and complete medium only was placed in the other wells as the effector control. At the same time, complete medium (100 μl), containing only YAC-1 cells (1×10^6 cells/ml), was added into empty wells as the target control. […] The absorbance was measured at 570 nm using a microplate reader. Cytotoxicity of NK cell was expressed as Cytotoxic Index (percent lysis of target cells): CI=[ODT−(ODexp.−ODE)]/ODT×100], where ODT represents OD value of the target control, whereas ODexp. and ODE represent OD value of the experimental group and effector control, respectively.
Cytotoxicity of NK cells toward target YAC-1 cells in the presence of different micronutrients and plant extracts (5-20 μg/ml) used individually and in a combination for 24 h at 37° C. Cytotoxicity of NK cells was assessed by the MTT assay and expressed as the mean±standard deviation (n=4).

With `O=C(O)CCCCC1CCSS1` (stereo not drawn) [Alpha lipoic acid] the “comparative effectiveness in decreasing IL-6 secretion (in words)” value (IL-6) was “best natural compounds”.

With `O=C1O[C@H]([C@@H](O)CO)C(O)=C1O` [Vitamin C] the “comparative effectiveness in stimulating phagocytic activity of RAW264.7 macrophages (in words)” value (RAW264.7 macrophages) was “most effective individual agents” and the “comparative effectiveness in decreasing IL-6 secretion (in words)” value (IL-6) was “best natural compounds”.

Fucoidan was tested, and the “comparative effectiveness on NK cell cytotoxicity (in words)” value (YAC-1 cells) was “two most effective individual compounds”.

In the case of Lipopolysaccharide [LPS], the “stimulation of IL-6 secretion by exposure of RAW264.7 macrophages to LPS” value (IL-6; LPS 10 ng/ml, 24 h, no treatment (positive control)) is reported as “over 300%”.
